Results published in patent US20090312377A1, “DERIVATIVES OF BENZO[D]ISOTHIAZOLES AS HISTONES DEACETYLASE INHIBITORS” (UNIVERSIDAD DE GRANADA, priority 2006, published 2009).

Test system: HDAC (HeLa nuclear extract, rich in HDAC activity)
Experiment: HDAC AK-501 colorimetric (Color de Lys) inhibition assay with HeLa nuclear extract
Assay type: biochemical, human
Conditions: Color de Lys substrate 0.2 mM final, 20 minutes at 37° C., reading at 405 nm, from straight line of 5 concentrations
Description: The inhibitory activity of the compounds obtained in the previous Examples 1, 2, 3 and 5 was evaluated, for which the HDAC AK-501 colorimetric titration kit for inhibition, supplied by Biomol, was used, following the indicated protocol.
The process of the assay was carried out in two steps. In the first step, the Color de Lys® substrate, containing an acetylated lysine group, was incubated with a sample of HeLa (human cervical cancer cell line) nuclear extract, rich in HDAC activity. In the second step, the previous mixture was treated with the Color de Lys® developer, which caused an increase in the quantifiable color intensity at 405 nm. There is a linear correlation between the absorption and the deacetylation of lysine within instrumental limits. The addition of an HDAC inhibitor gives rise to a lower deacetylation of the Color de Lys® substrate and to a decrease in the intensity at 405 nm.
The operating procedure was the following: • 1. The buffer, diluted (250 nM) TSA (Trichostatin A) and the inhibitor to be assayed were added at the desired concentrations in the suitable wells of the plate (See Table below). • 2. The Hela extract was added, except to the enzyme-free control. • 3. The plate and the Color de Lys® substrate were thermostatted at 37° C. • 4. The reactions were started adding the 0.4 mM substrate (final concentration of the substrate 0.2 mM) in each well and it was stirred. • 5. A reaction time of 20 minutes at 37° C. was allowed. • 6. The Color de Lys® developer, prepared approximately 30 minutes before its use, was added (the developer was used diluted 20 times with an amount of TSA resulting in a final concentration of 1 μM in the assay). It was allowed to react for 15 minutes at 37° C. • 7. The reading was made at 405 nm.
(×5) and (×2) indicate the dilution factors.
The result of the reading using 5 different concentrations taken between 0.1-2.0 mM of each inhibitor allowed obtaining a straight line of concentrations versus enzymatic activity. The concentration necessary to deduce the 50% enzymatic activity (IC50) was calculated from the equation of said line.

SMILES	IC50
O=C(NO)c1ccc(CN2C(=O)c3ccccc3S2(=O)=O)cc1 [Compound 3, 4-[(1,1-dioxide-3-oxo-2H-benzo[d]isothiazol-2-yl)methyl]-N-hydroxybenzamide]	1150 nM
O=C(CCCCCOc1nsc2ccccc12)NO [Compound 5, 6-[(benzo[d]isothiazol-3-yl)oxa]-N-hydroxyhexanamide]	210 nM
O=C(CCCCCN1C(=O)c2ccccc2S1(=O)=O)NO [Compound 1, 6-(1,1-dioxide-3-oxo-2H-benzo[d]isothiazol-2-yl)-N-hydroxyhexanamide]	1500 nM
O=C(CCCCCCN1C(=O)c2ccccc2S1(=O)=O)NO [Compound 2, 7-(1,1-dioxide-3-oxo-2H-benzo[d]isothiazol-2-yl)-N-hydroxyheptanamide]	250 nM
